Assay results reported in patent US8361968B2 (Takeda Pharmaceutical Company Limited, priority 2002, dated 2013).
Numbered stars: 1 amine (or outer) side, 2 acyl side, 3 side chain; on linkers, the order of the positions; unused ones are H or OH. Square brackets hold non-standard residues; d marks the D form. Peptide text beside a SMILES is read from it. * marks the point of attachment. Propanoyl(3-indol-3-yl) = O=C(CCc1c[nH]c2ccccc12)*; X8 = CNC(=N)NCC[C@H](N[*:1])C(=O)[*:2]; Cyclohexanecarbonyl = O=C(C1CCCCC1)*; Arg(Me) = CNC(=N)NCCC[C@H](N)C(=O)O; Cha = N[C@@H](CC1CCCCC1)C(=O)O; Hexanoyl = CCCCCC(=O)*; azaGly = NNC(=O)O

Experiments:
hOT7T175 [1] = target: T1, hOT7T175 (Homo sapiens, UniProt Q969F8, L364H); test: hOT7T175 receptor binding activity: binding inhibition of Cy-5-labeled metastin (40-54) on hOT7T175-expressed CHO cells; set-up: expressed in transfected cells; host or cells: CHO cells
Experimental: Assay for hOT7T175 Receptor Binding Activity
h0T7T175-Expressed CHO cells were cultured in MEM-cc medium (nucleic acid-free) containing 10% dialyzed serum. The medium was removed and the adherent cells were washed with PBS. Then, PBS containing 5 mM EDTA was added and the cells were scraped from a flask with a cell scraper. […] To each well of a 96-Well Black Clear Bottom Plate (Applied Biosystems, Inc.), 10 μL of assay buffer containing 1% dimethylsulfoxide was added to examine total binding, 10 μL of 10 μM non-labeled peptide (having the same amino acid sequence as that of the labeled one) solution diluted with assay buffer to examine non-specific binding, and 10 μL of a test compound diluted with assay buffer to examine the binding inhibition activity of the test compound, respectively. Furthermore, 90 μL each of the cell suspension was dispensed to each well. […] The specific binding is a value obtained by subtracting the non-specific binding from the total binding.

hOT7T175 [2] = target: T1, hOT7T175; test: Intracellular Ca ion level-increasing activity using FLIPR in hOT7T175/CHO; format: cell-based; set-up: expressed in transfected cells; host or cells: CHO/dhfr- cells, obtained from ATCC; conditions: relative, Metastin (1-54) = 1

T1 sequence (Q969F8 whole entry L364H): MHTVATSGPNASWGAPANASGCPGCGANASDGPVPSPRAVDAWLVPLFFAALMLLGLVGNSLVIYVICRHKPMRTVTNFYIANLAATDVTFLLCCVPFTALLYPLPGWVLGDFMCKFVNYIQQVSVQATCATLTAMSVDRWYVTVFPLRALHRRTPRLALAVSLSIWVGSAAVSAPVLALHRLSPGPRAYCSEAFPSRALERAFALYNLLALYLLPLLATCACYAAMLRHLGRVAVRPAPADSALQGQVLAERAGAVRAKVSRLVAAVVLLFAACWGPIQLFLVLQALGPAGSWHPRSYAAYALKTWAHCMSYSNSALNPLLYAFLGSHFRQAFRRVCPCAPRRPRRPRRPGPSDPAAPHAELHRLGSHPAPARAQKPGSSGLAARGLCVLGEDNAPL

CC(C)C[C@H](NC(=O)CNC(=O)[C@H](Cc1ccccc1)NC(=O)[C@H](CO)NC(=O)[C@H](CC(N)=O)NC(=O)[C@H](Cc1cn(C=O)c2ccccc12)NC(=O)[C@H](CC(N)=O)NC(=O)[C@@H](N)Cc1ccc(O)cc1)C(=O)N[C@@H](CCCNC(=N)N)C(=O)N[C@@H](Cc1ccc(C#N)cc1)C(N)=O [Compound No. 78, Tyr-Asn-Trp(For)-Asn-Ser-Phe-Gly-Leu-Arg-Phe(4CN)-NH2]
IC50 (hOT7T175 [1]): 25 nM | Specific Activity (intracellular Ca ion level-increasing activity) (hOT7T175 [2]): 10

CNC(=N)NCCC[C@H](NC(=O)[C@H](CC(C)C)NC(=O)NNC(=O)[C@H](Cc1ccccc1)NC(=O)[C@H](CO)NC(=O)[C@H](CC(N)=O)NC(=O)C1CCCCC1)C(=O)N[C@@H](Cc1ccccc1)C(N)=O [Compound No. 278, Cyclohexanecarbonyl-Asn-Ser-Phe-AzaGly-Leu-Arg(Me)-Phe-NH2] (Cyclohexanecarbonyl-NSF[azaGly]L[Arg(Me)]F-NH2)
IC50 (hOT7T175 [1]): 110 nM | Specific Activity (intracellular Ca ion level-increasing activity) (hOT7T175 [2]): 2

CCCCCC(=O)N[C@@H](CC(N)=O)C(=O)N[C@@H](CO)C(=O)N[C@@H](Cc1ccccc1)C(=O)NNC(=O)N[C@@H](CC(C)C)C(=O)N[C@@H](CCCNC(=N)NC)C(=O)N[C@@H](Cc1ccccc1)C(N)=O [Compound No. 277, n-Hexanoyl-Asn-Ser-Phe-AzaGly-Leu-Arg(Me)-Phe-NH2] (Hexanoyl-NSF[azaGly]L[Arg(Me)]F-NH2)
IC50 (hOT7T175 [1]): 54 nM | Specific Activity (intracellular Ca ion level-increasing activity) (hOT7T175 [2]): 2

CNC(=N)NCCC[C@H](NC(=O)[C@H](CC(C)C)NC(=O)NNC(=O)[C@H](Cc1ccccc1)NC(=O)[C@H](CO)NC(=O)[C@H](CC(N)=O)NC(=O)[C@H](C)NC(=O)[C@H](CC(N)=O)NC(=O)[C@H](N)Cc1ccc(O)cc1)C(=O)N[C@@H](Cc1ccccc1)C(N)=O [Compound No. 235, D-Tyr-Asn-Ala-Asn-Ser-Phe-AzaGly-Leu-Arg(Me)-Phe-NH2] (H-[dY]NANSF[azaGly]L[Arg(Me)]F-NH2)
IC50 (hOT7T175 [1]): 100 nM | Specific Activity (intracellular Ca ion level-increasing activity) (hOT7T175 [2]): 1

CNC(=N)NCCC[C@H](NC(=O)[C@H](CC(C)C)NC(=O)NNC(=O)[C@H](Cc1ccccc1)NC(=O)[C@H](CO)NC(=O)[C@H](CC(N)=O)NC(=O)[C@@H](Cc1c[nH]c2ccccc12)NC(=O)[C@H](CC(N)=O)NC(=O)[C@H](N)Cc1ccc(O)cc1)C(=O)N[C@@H](Cc1ccccc1)C(N)=O [Compound No. 236, D-Tyr-Asn-D-Trp-Asn-Ser-Phe-AzaGly-Leu-Arg(Me)-Phe-NH2]
IC50 (hOT7T175 [1]): 42 nM | Specific Activity (intracellular Ca ion level-increasing activity) (hOT7T175 [2]): 2

CC(C)C[C@H](NC(=O)CNC(=O)[C@H](Cc1ccccc1)NC(=O)[C@H](CO)NC(=O)[C@H](CC(N)=O)NC(=O)[C@H](Cc1c[nH]c2ccccc12)NC(=O)[C@H](CC(N)=O)NC(=O)[C@@H](N)Cc1ccc(O)cc1)C(=O)N[C@@H](CCCNC(=N)N)C(=O)N[C@@H](CC1CCCCC1)C(N)=O [Compound No. 112] (H-YNWNSFGLR[Cha]-NH2)
IC50 (hOT7T175 [1]): 370 nM | Specific Activity (intracellular Ca ion level-increasing activity) (hOT7T175 [2]): 2

CC[C@H](C)[C@H](NC(=O)[C@H](N)Cc1ccc(O)cc1)C(=O)N[C@@H](CC(N)=O)C(=O)N[C@@H](CO)C(=O)N[C@@H](Cc1ccccc1)C(=O)NCC(=O)N[C@@H](CC(C)C)C(=O)N[C@@H](CCCNC(=N)NC)C(=O)N[C@@H](Cc1ccccc1)C(N)=O [Compound No. 228] (H-[dY]INSFGL[Arg(Me)]F-NH2)
IC50 (hOT7T175 [1]): 40 nM | Specific Activity (intracellular Ca ion level-increasing activity) (hOT7T175 [2]): 5

CNC(=N)NCC[C@H](NC(=O)[C@H](CC(C)C)NC(=O)CNC(=O)[C@H](Cc1ccccc1)NC(=O)[C@H](CO)NC(=O)[C@H](CC(N)=O)NC(=O)[C@H](Cc1c[nH]c2ccccc12)NC(=O)[C@H](CC(N)=O)NC(=O)[C@@H](N)Cc1ccc(O)cc1)C(=O)N[C@@H](Cc1ccccc1)C(N)=O [Compound No. 311] (H-YNWNSFGL[X8]F-NH2)
IC50 (hOT7T175 [1]): 470 nM | Specific Activity (intracellular Ca ion level-increasing activity) (hOT7T175 [2]): 1

CC(C)C[C@H](NC(=O)CNC(=O)[C@H](Cc1ccccc1)NC(=O)[C@H](CO)NC(=O)[C@H](CC(N)=O)NC(=O)[C@H](Cc1c[nH]c2ccccc12)NC(=O)[C@H](CC(N)=O)NC(=O)[C@@H](N)Cc1ccc(O)cc1)C(=O)N[C@@H](CCCCNC(=N)N)C(=O)N[C@@H](Cc1ccccc1)C(N)=O [Compound No. 97]
IC50 (hOT7T175 [1]): 370 nM | Specific Activity (intracellular Ca ion level-increasing activity) (hOT7T175 [2]): 10

CC(C)C[C@H](NC(=O)CNC(=O)[C@H](Cc1ccccc1)NC(=O)[C@H](CO)NC(=O)[C@H](CC(N)=O)NC(=O)[C@H](Cc1c[nH]c2ccccc12)NC(=O)[C@H](CC(N)=O)NC(=O)[C@@H](N)CC(=O)O)C(=O)N[C@@H](CCCNC(=N)N)C(=O)N[C@@H](Cc1ccccc1)C(N)=O [Compound No. 75] (H-DNWNSFGLRF-NH2)
IC50 (hOT7T175 [1]): 880 nM | Specific Activity (intracellular Ca ion level-increasing activity) (hOT7T175 [2]): 1

CNC(=N)NCCC[C@H](NC(=O)[C@H](CC(C)C)NC(=O)NNC(=O)[C@H](Cc1ccccc1)NC(=O)[C@H](CO)NC(=O)[C@H](CC(N)=O)NC(=O)[C@@H](Cc1c[nH]c2ccccc12)NC(=O)[C@@H](CC(N)=O)NC(=O)[C@H](N)Cc1ccc(O)cc1)C(=O)N[C@@H](Cc1ccccc1)C(N)=O [Compound No. 238, D-Tyr-D-Asn-D-Trp-Asn-Ser-Phe-AzaGly-Leu-Arg(Me)-Phe-NH2]
IC50 (hOT7T175 [1]): 49 nM | Specific Activity (intracellular Ca ion level-increasing activity) (hOT7T175 [2]): 1

CNC(=N)NCCC[C@H](NC(=O)[C@H](CC(C)C)NC(=O)NNC(=O)[C@H](Cc1ccccc1)NC(=O)[C@H](CO)NC(=O)[C@H](CC(N)=O)NC(=O)CCc1c[nH]c2ccccc12)C(=O)N[C@@H](Cc1ccccc1)C(N)=O [Compound No. 260, 3-(3-Indolyl)propionyl-Asn-Ser-Phe-AzaGly-Leu-Arg(Me)-Phe-NH2] ({Propanoyl(3-indol-3-yl)}-NSF[azaGly]L[Arg(Me)]F-NH2)
IC50 (hOT7T175 [1]): 320 nM | Specific Activity (intracellular Ca ion level-increasing activity) (hOT7T175 [2]): 5

CC(C)C[C@H](NC(=O)CNC(=O)[C@H](Cc1ccccc1)NC(=O)[C@H](CO)NC(=O)[C@H](CC(N)=O)NC(=O)[C@H](Cc1c[nH]c2ccccc12)NC(=O)[C@H](CC(N)=O)NC(=O)[C@@H](N)Cc1ccc(O)cc1)C(=O)N[C@@H](CCCNC(=N)N)C(=O)N[C@@H](Cc1cccc(C(F)(F)F)c1)C(N)=O [Compound No. 200]
IC50 (hOT7T175 [1]): 340 nM | Specific Activity (intracellular Ca ion level-increasing activity) (hOT7T175 [2]): 10

COc1ccc(C[C@H](NC(=O)[C@H](CCCNC(=N)N)NC(=O)[C@H](CC(C)C)NC(=O)CNC(=O)[C@H](Cc2ccccc2)NC(=O)[C@H](CO)NC(=O)[C@H](CC(N)=O)NC(=O)[C@H](Cc2c[nH]c3ccccc23)NC(=O)[C@H](CC(N)=O)NC(=O)[C@@H](N)Cc2ccc(O)cc2)C(N)=O)cc1 [Compound No. 18] (H-YNWNSFGLRY(Me)-NH2)
IC50 (hOT7T175 [1]): 7.7 nM | Specific Activity (intracellular Ca ion level-increasing activity) (hOT7T175 [2]): 1

CNC(=N)NCCC[C@H](NC(=O)[C@H](CC(C)C)NC(=O)NNC(=O)[C@H](Cc1ccccc1)NC(=O)[C@H](CO)NC(=O)[C@H](CC(N)=O)NC(=O)[C@H](Cc1c[nH]c2ccccc12)NC(=O)[C@H](N)Cc1ccc(O)cc1)C(=O)N[C@@H](Cc1ccccc1)C(N)=O [Compound No. 222, D-Tyr-Trp-Asn-Ser-Phe-AzaGly-Leu-Arg(Me)-Phe-NH2] (H-[dY]WNSF[azaGly]L[Arg(Me)]F-NH2)
IC50 (hOT7T175 [1]): 33 nM | Specific Activity (intracellular Ca ion level-increasing activity) (hOT7T175 [2]): 5

CCCC[C@H](NC(=O)CNC(=O)[C@H](Cc1ccccc1)NC(=O)[C@H](CO)NC(=O)[C@H](CC(N)=O)NC(=O)[C@H](Cc1c[nH]c2ccccc12)NC(=O)[C@H](CC(N)=O)NC(=O)[C@@H](N)Cc1ccc(O)cc1)C(=O)N[C@@H](CCCNC(=N)N)C(=O)N[C@@H](Cc1ccccc1)C(N)=O [Compound No. 105, Tyr-Asn-Trp-Asn-Ser-Phe-Gly-Nle-Arg-Phe-NH2]
IC50 (hOT7T175 [1]): 880 nM | Specific Activity (intracellular Ca ion level-increasing activity) (hOT7T175 [2]): 1

CNC(=N)NCCC[C@H](NC(=O)[C@H](CC(C)C)NC(=O)CNC(=O)[C@H](Cc1ccccc1)NC(=O)[C@H](CO)NC(=O)[C@H](CC(N)=O)NC(=O)[C@@H](Cc1c[nH]c2ccccc12)NC(=O)[C@H](CC(N)=O)NC(=O)[C@@H](N)Cc1ccc(O)cc1)C(=O)N[C@@H](Cc1ccccc1)C(N)=O [Compound No. 143, Tyr-Asn-D-Trp-Asn-Ser-Phe-Gly-Leu-Arg(Me)-Phe-NH2]
IC50 (hOT7T175 [1]): 7.7 nM | Specific Activity (intracellular Ca ion level-increasing activity) (hOT7T175 [2]): 3

CNC(=N)NCCC[C@H](NC(=O)[C@H](CC(C)C)NC(=O)CNC(=O)[C@H](Cc1ccccc1)NC(=O)[C@H](CO)NC(=O)[C@H](CC(N)=O)NC(=O)[C@H](CO)NC(=O)[C@H](CC(N)=O)NC(=O)[C@H](N)Cc1ccc(O)cc1)C(=O)N[C@@H](Cc1ccccc1)C(N)=O [Compound No. 170] (H-[dY]NSNSFGL[Arg(Me)]F-NH2; N-terminus assumed)
IC50 (hOT7T175 [1]): 260 nM | Specific Activity (intracellular Ca ion level-increasing activity) (hOT7T175 [2]): 1

CC(C)C[C@H](NC(=O)CNC(=O)[C@H](Cc1ccccc1)NC(=O)[C@H](CO)NC(=O)[C@H](CC(N)=O)NC(=O)CCc1c[nH]c2ccccc12)C(=O)N[C@@H](CCCNC(=N)N)C(=O)N[C@@H](Cc1ccccc1)C(N)=O [Compound No. 114, 3-(3-Indolyl)propionyl-Asn-Ser-Phe-Gly-Leu-Arg-Phe-NH2] ({Propanoyl(3-indol-3-yl)}-NSFGLRF-NH2)
IC50 (hOT7T175 [1]): 550 nM | Specific Activity (intracellular Ca ion level-increasing activity) (hOT7T175 [2]): 3
